Structures are written as SMILES. Where two headings read alike, the source gives them in different places.

In the assay the target is BTK (Homo sapiens, UniProt Q06187). The assay is described as follows: biochemical.
The mark [1] stands for this setting: read-out: BTK inhibition (%), 0.75 uM BTK, […] probe 3l, 15 min preincubation.

BTK, sequence (Q06187 402-655 limits assumed): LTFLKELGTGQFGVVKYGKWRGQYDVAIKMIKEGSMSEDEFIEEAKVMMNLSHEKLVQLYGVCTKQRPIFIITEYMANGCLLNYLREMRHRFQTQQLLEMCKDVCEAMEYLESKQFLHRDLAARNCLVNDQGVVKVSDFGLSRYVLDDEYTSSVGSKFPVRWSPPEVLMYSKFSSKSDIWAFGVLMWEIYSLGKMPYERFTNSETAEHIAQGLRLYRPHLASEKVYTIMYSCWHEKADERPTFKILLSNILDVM

The term inhibition denotes the drop in the measured response relative to a control, in per cent. `NC(=O)[C@@H]1CCCN1C(=O)[C@H](Cc1cnc[nH]1)NC(=O)[C@@H]1CCC(=O)N1` [PCM-0214836]: the inhibition at 10 µM under setting [1] is -5.4%.
Same read-out and setting: under `COCCCOc1ccnc(C[S+]([O-])c2nc3ccccc3[nH]2)c1C` (stereo not drawn) [PCM-0214837] stands -10.1%; under `CC(=O)O[C@H]1C[C@@]2(C)[C@@H](C[C@@H](O)[C@H]3[C@@]4(C)CC[C@@H](O)[C@@H](C)[C@@H]4CC[C@@]32C)/C1=C(\CCC=C(C)C)C(=O)O` [PCM-0214838], 6.2%; under `C[C@H](CCC(=O)O)[C@H]1CC[C@H]2[C@@H]3CC[C@@H]4C[C@H](O)CC[C@]4(C)[C@H]3C[C@H](O)[C@]12C` [PCM-0214839], 11.7%.
As to `Cc1cc(N2CCN([C@@H]3CN[C@H](C(=O)N4CCSC4)C3)CC2)n(-c2ccccc2)n1` [PCM-0214840], for the setting “read-out: BTK inhibition (%)”, the inhibition at 10 µM is 0.8%.
On to `CN[C@@H](C)C(=O)N[C@H]1CN(C(=O)CC(C)C)CC[C@H]2CC[C@@H](C(=O)NC(c3ccccc3)c3ccccc3)N2C1=O` [PCM-0214841], for which, under setting [1], the inhibition at 10 µM was -9.3%.
`C#C[C@]1(O)CC[C@H]2[C@@H]3CCC4=CC(=O)CC[C@@H]4[C@H]3C(=C)C[C@@]21CC` [PCM-0214842]: under setting [1], the inhibition at 10 µM is 3.1%.
On the same count and under the same terms, the figure for `C/C=C(\C)C(=O)O[C@H]1[C@H](OC(C)=O)[C@@]2(CO)C(CC1(C)C)C1=CCC3[C@@]4(C)CCC(O[C@@H]5O[C@H](C(=O)O)[C@@H](O[C@@H]6O[C@H](CO)[C@@H](O)[C@H](O)[C@H]6O)[C@H](O)[C@H]5O[C@@H]5O[C@H](CO)[C@@H](O)[C@H](O)[C@H]5O)[C@](C)(CO)C4CC[C@@]3(C)[C@]1(C)C[C@H]2O` (stereo partly drawn) [PCM-0214843] is 3.4%.
Turning to `Cn1c(COP(=O)(NCCBr)NCCBr)cnc1[N+](=O)[O-]` [PCM-0214844], the inhibition at 10 µM (read-out: BTK inhibition (%)) was -4.7%.
With `O=C1Nc2ccccc2C1=O` [PCM-0214846], the inhibition at 10 µM under setting [1] is 11.7%.
On to `CCCCCCCCCCCC(=O)O` [PCM-0214847], for which the inhibition at 10 µM under setting [1] was -69.3%.
Still for that read-out and setting: the figure for `O=CC[C@@H](O)[C@H](O)[C@H](O)CO` [PCM-0214849] is 5.4%.
Same read-out and setting: the figure for `O=C(/C=C/c1ccc(O)c2c1[C@H](C(=O)O[C@H](Cc1ccc(O)c(O)c1)C(=O)O)[C@@H](c1ccc(O)c(O)c1)O2)O[C@H](Cc1ccc(O)c(O)c1)C(=O)O` [PCM-0214854] is -34.2%.
In the case of `CC(C)=CCC[C@](C)(O)[C@H]1CC[C@]2(C)[C@@H]1[C@H](O)C[C@@H]1[C@@]3(C)CC[C@H](O)C(C)(C)[C@@H]3CC[C@]12C` [PCM-0214857], under setting [1], the inhibition at 10 µM came out at 21%.
On the same count and under the same terms, the figure for `O=c1c(-c2ccc(O)cc2)coc2cc(O[C@@H]3O[C@H](CO)[C@@H](O)[C@H](O)[C@H]3O)cc(O)c12` [PCM-0214858] is -9.3%; for `C=C1C[C@@]23CC[C@H]4[C@@](C)(CCC[C@@]4(C)C(=O)O[C@@H]4O[C@H](CO)[C@@H](O)[C@H](O)[C@H]4O)[C@@H]2CC[C@]1(O[C@@H]1O[C@H](CO)[C@@H](O)[C@H](O[C@@H]2O[C@H](CO)[C@@H](O)[C@H](O)[C@H]2O)[C@H]1O[C@@H]1O[C@@H](C)[C@H](O)[C@@H](O)[C@H]1O)C3` [PCM-0214859] it is -14.8%.
Still for that read-out and setting: under `CCOC(=O)[C@H](CCc1ccccc1)N[C@@H](C)C(=O)N1C(=O)N(C)C[C@H]1C(=O)O` [PCM-0214860] stands 7%; under `N[C@@H](C(=O)N[C@@H]1C(=O)N2C(C(=O)O)=C(Cl)CS[C@H]12)c1ccccc1` [PCM-0214861], -13.2%.
Same read-out and setting: the figure for `C[C@H](CC(=O)C[C@@H](C)[C@H]1C[C@H](O)[C@@]2(C)C3=C(C(=O)C[C@]12C)[C@@]1(C)CCC(=O)C(C)(C)[C@@H]1C[C@@H]3O)C(=O)O` [PCM-0214862] is -6.2%; for `Cc1ccc(NC(=O)c2ccc(CN3CC[C@H](N(C)C)C3)c(C(F)(F)F)c2)cc1Nc1nccc(-c2cncnc2)n1` [PCM-0214863] it is 36.6%.
`C[C@]12CCC(=O)C[C@@H]1CC[C@@H]1[C@@H]2CC[C@]2(C)[C@@H](O)CC[C@@H]12` [PCM-0214865]: the inhibition at 10 µM (read-out: BTK inhibition (%)) is -21%.
